Patent US20130296346A1, “DIPHENYL-AMINE DERIVATIVES: USES, PROCESS OF SYNTHESIS AND PHARMACEUTICAL COMPOSITIONS” (Faes Farma, S.A., priority 2010, published 2013)
Marks after values point to notes of the source that are not given here.

Experiments:
resting human PBLs = assay: Apoptosis of resting human PBLs; type: cell-based
Protocol: To isolate normal peripheral blood lymphocytes (PBLs), mononuclear cells were obtained from fresh human peripheral blood from healthy volunteers by centrifugation on Ficoll-Hypaque density gradients, washed with phosphate-buffered saline (PBS), and resuspended in RPMI-1640 medium containing 10% (v/v) heat-inactivated FBS, 2 mM L-glutamine, 100 U/ml penicillin, and 100 μg/ml streptomycin as described (Cabaner et al. Br. J. Pharmacol 127:813-825.1999). Monocytes were depleted by culture dish adherence after overnight incubation. Nonadherent cells (lymphocytes) were washed with PBS and collected. PBL preparations were typically 70-75% CD3^+, 24-29% CD 19^+, and less than 0.4% CD 14^+.

MM1S cells = assay: Multiple myeloma xenograft animal model; type: in vivo, CB17-SCID mice; settings: 2.5 mg/kg i.v. 3 times/week
Protocol: The multiple myeloma (MM) MM1S cell line was cultured in RPMI-1640 medium containing 10% (v/v) heat-inactivated fetal bovine serum, 2 mM L-glutamine, 100 U/ml penicillin, and 100 μg/ml streptomycin at 37° C. in humidified 95% air and 5% CO2. Cells were periodically tested for Mycoplasma infection and found to be negative.
CB 17-severe combined immunodeficiency (SCID) mice (Charles River laboratories, Lyon, France), kept and handled according to institutional guidelines, complying with Spanish legislation under a 12/12 h light/dark cycle at a temperature of 22° C., received a standard diet and acidified water ad libitum. CB17-SCID mice were inoculated subcutaneously into their lower dorsum with 3×10^7MM1S cells in 100 μl PBS and 100 μl Matrigel basement membrane matrix (Becton Dickinson). When tumors were palpable, mice were randomly assigned into cohorts of 10 mice each, receiving i.v. administration (3 times/week) of the compound at the tail. The volume used for each i. v. administration was […] rendering a final drug concentration of 2.5 mg/kg (body weight). Mice i.v. administered with an equal volume of vehicle were run in parallel. The shortest and longest diameter of the tumor were measured with calipers, and tumor volume (10^−3 cm^3) was calculated using the following standard formula: […]. Animals were sacrificed, according to institutional guidelines, when the diameter of their tumors reached 3 cm or when significant toxicity was observed. Animal body weight and any sign of morbidity were monitored. Drug treatment was for 1 month. Then, tumors were isolated, measured and weighed, and a necropsy analysis involving tumors and distinct organs was carried out.

[1] = test system: human patient chronic lymphocytic leukaemia cells; assay: Viability of chronic lymphocytic leukaemia cells from patients; type: cell-based; settings: cells with different ZAP70 expression
Protocol: A panel of 6 human patient chronic lymphocytic leukaemia cells was chosen showing different patterns of ZAP70 expression (see cytogenetic changes notated in the table 5). Cells were incubated in the presence of compound 3. Results of this study, showing the viability are depicted in FIG. 3.

[2] = test system: colorectal cancer cells from patients with Kras mutation; assay: Mutated Kras colon cancer orthotopic animal model; type: in vivo, mice; settings: compared with vehicle control, FIG. 4A
Protocol: Using an animal model based on colorectal cancer cells from patients with Kras mutation, implanted on mice in the colon area (Yao, M. Cyclooxygenase-2 selective inhibition with NS-398 suppresses proliferation and invasiveness and delays liver metastasis in colorectal cancer. Br. J. Cancer, 2004 Feb. 9; 90(3):712-9), the effects of Compound 3 were tested.

MOSEC IDB cells = assay: Ovarian tumor orthotopic animal model; type: in vivo, mice; settings: 30 mg/Kg i.p. 5 days per week during 2 weeks
Protocol: Experiments were performed using MOSEC IDB cells (mouse ovarian surface epithelial cells) with cloned luciferase reporter and cells implanted on mice ovarian region (Yu-Hung Huang et al, Claudin-3 gene silencing with siRNA suppresses ovarian tumor growth and metastasis. 3426-3430 PNAS 2009. vol. 106, no. 9).
FIG. 6A represents a Pet picture of luciferase activity in vivo tumor (Compound 3 treated mice: 30 mg/Kg i.p. 5 days per week during 2 weeks).

EHEB cells = assay: Expression of proteins by immunoblotting in EHEB cells; type: cell-based, human; settings: 10 μM
Protocol: Expression of different proteins in Compound 3-treated EHEB cells (FIG. 7B). Cells were treated with 10 μM Compound 3 for the indicated times and analyzed by immunoblotting with specific antibodies for the indicated proteins. The migration positions of the different proteins are indicated. β-actin was used as a loading control. Data shown are representative of three experiments performed.

With `Fc1ccc(CNCCCC=C(c2ccccc2)c2ccccc2)cc1` [Compound 3, (5,5-diphenyl-pent-4-enyl)-(4-fluoro-benzyl)-amine hydrocloride] the “% Apoptosis PBLs” value (resting human PBLs; 10^−4 M) was 7.5%, the “% Apoptosis PBLs” value (resting human PBLs; 10^−5 M) was 1.3% and the “effect on PBLs” value (resting human PBLs; even at 10^−4 M) was “hardly affect PBLs”. The “MM tumor volume, difference over the control for all measure days” value (MM1S cells; 1 month) was “stadistically significant”, the “Tumor Volume” value (MM1S cells; ex vivo after 1 month) was 0.288 cm^3 and the “Tumor Weight” value (MM1S cells; ex vivo after 1 month) was 0.647 g. The “Inhibition (%) of Tumor Volume” value (MM1S cells; vs control, 1 month) was 92.26** %, the “Inhibition (%) of Tumor Weight” value (MM1S cells; vs control, 1 month) was 85.84* % and the “decrease of viability of patient CLL cells” value [1] was “more significant in cell with a low expression of ZAP70”. The “tumour volume of human colorectal cancer” value [2] was “clear reduction effect of the tumour volume”, the “in vivo antitumor activity, ovarian tumor area” value (MOSEC IDB cells) was “potent in vivo antitumor activity reducing the tumor area” and the caspase-3 (EHEB cells) was “activation”. The “cleavage of PARP” value (EHEB cells) was “rapid cleavage”, the Caspase-4 (EHEB cells; EHEB cells) was “activated” and the caspase-9 (EHEB cells; EHEB cells) was “activated”. The “induction of autophagy (LC3-II formation)” value (EHEB cells; EHEB cells) was “very rapid and potent induction of autophagy”.
